Test [1] has as its target T1, Protein cereblon/F-box-like/WD repeat-containing protein TBL1X (Homo sapiens) (UniProt Q96SW2+O60907). As to the kind of experiment: PROTAC activity at CRBN/TBL1X in human Ri-1 cells assessed as […] TBL1X level at 1 uM incubated for 6 hrs by Western blotting analysis (reference value: 1). The format is cell-based. (A western blot detects proteins with antibodies after separation by electrophoresis.)

For test [2], the target named is T1, Protein cereblon/F-box-like/WD repeat-containing protein TBL1X (Homo sapiens). As to the kind of experiment: PROTAC activity at CRBN/TBL1X in human Ri-1 cells assessed as […] TBL1X level at 0.04 uM incubated for 6 hrs by Western blotting analysis (reference value: 1). In kind it is cell-based.
Test [3] shares this target. Kind of test: PROTAC activity at CRBN/TBL1X in human Ri-1 cells assessed as […] TBL1X level at 5 uM incubated for 6 hrs by Western blotting analysis (reference value: 1). The format is cell-based.
The nature of test [4]: Cytotoxicity against human Ri-1 cells assessed as reduction in cell viability incubated for 72 hrs by MTS assay. In kind it is functional, cell-based. The settings on record: Ri-1, 72 h.
The subject of test [5] is Pfeiffer. Kind of test: Cytotoxicity against human Pfeiffer cells assessed as reduction in cell viability incubated for 72 hrs by MTS assay. In kind it is functional, cell-based.
The target in test [6] is T1, Protein cereblon/F-box-like/WD repeat-containing protein TBL1X (Homo sapiens). As to the kind of experiment: PROTAC activity at CRBN/TBL1X in human Ri-1 cells assessed as TBL1X level relative to control at 0.008 uM incubated for 6 hrs by Western blotting analysis (reference value: 1). The format is cell-based.
Test [7] shares this target. As to the kind of experiment: PROTAC activity at CRBN/TBL1X in human Ri-1 cells assessed as […] TBL1X level at 0.2 uM incubated for 6 hrs by Western blotting analysis (reference value: 1). In kind it is cell-based.
The test system of test [8] is Granta-519. As to the kind of experiment: Cytotoxicity against human Granta-519 cells assessed as reduction in cell viability incubated for 72 hrs by MTS assay. The format is functional, cell-based. The settings on record: Granta-519, 72 h. Background: Tetrazolium assays rely on reduction of a dye to a coloured formazan, in cell work by metabolically active cells.
The target of test [9] is T1, Protein cereblon/F-box-like/WD repeat-containing protein TBL1X (Homo sapiens). Kind of test: PROTAC activity at CRBN/TBL1X in human Ri-1 cells assessed as decrease in TBL1X level incubated for 6 hrs by Western blotting analysis. In kind it is cell-based. The settings on record: dose 0.008-5 µM.
The target is the same in test [10]. Kind of test: PROTAC activity at CRBN/TBL1X in human Ri-1 cells assessed as […] TBL1X level at 0.2 uM incubated for 6 hrs in presence of MG-132 by Western blotting analysis (reference value: 1). The format is cell-based.
For test [11] the target is unchanged. Kind of test: PROTAC activity at CRBN/TBL1X in human Ri-1 cells assessed as […] TBL1X level at 0.2 uM incubated for 6 hrs in presence of pomalidomide by Western blotting analysis (reference value: 1). In kind it is cell-based.
For test [12] the target is unchanged. Kind of test: PROTAC activity at CRBN/TBL1X in human Ri-1 cells assessed as […] TBL1X level at 0.2 uM incubated for 6 hrs in presence of tega-vivint by Western blotting analysis (reference value: 1). The format is cell-based.

This note sets out measurements from ChEMBL document CHEMBL6071187, “Design, Synthesis, and Biological Evaluation of Selective TBL1X Degraders” (ACS Med Chem Lett, 2024).

T1 sequence (O60907 whole entry, looked up): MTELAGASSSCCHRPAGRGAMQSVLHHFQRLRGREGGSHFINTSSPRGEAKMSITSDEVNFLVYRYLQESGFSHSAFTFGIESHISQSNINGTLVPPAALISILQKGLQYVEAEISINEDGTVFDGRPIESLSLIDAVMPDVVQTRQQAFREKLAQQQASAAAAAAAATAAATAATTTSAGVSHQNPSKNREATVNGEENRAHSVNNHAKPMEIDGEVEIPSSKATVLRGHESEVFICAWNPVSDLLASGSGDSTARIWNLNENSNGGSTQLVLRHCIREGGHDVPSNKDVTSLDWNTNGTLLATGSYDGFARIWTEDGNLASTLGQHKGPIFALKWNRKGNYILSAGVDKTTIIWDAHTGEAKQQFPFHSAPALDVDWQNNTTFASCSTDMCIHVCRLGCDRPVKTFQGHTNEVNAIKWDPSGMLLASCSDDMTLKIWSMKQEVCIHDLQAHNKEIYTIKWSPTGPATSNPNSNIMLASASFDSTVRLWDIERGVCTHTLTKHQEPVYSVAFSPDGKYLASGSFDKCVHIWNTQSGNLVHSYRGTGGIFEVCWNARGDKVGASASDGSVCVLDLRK
T1 sequence (Q96SW2 whole entry, looked up): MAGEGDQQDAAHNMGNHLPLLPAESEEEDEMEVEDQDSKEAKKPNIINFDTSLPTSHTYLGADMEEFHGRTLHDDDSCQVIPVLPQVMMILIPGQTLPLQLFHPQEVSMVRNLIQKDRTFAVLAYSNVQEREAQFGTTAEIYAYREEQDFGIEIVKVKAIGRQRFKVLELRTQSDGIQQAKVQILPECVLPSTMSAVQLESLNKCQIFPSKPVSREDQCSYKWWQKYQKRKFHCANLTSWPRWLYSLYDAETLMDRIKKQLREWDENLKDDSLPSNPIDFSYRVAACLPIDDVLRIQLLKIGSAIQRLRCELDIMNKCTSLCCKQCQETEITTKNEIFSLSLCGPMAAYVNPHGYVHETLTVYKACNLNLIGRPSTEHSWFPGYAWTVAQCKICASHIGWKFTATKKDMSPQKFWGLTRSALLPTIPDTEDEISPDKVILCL

By IC50 is commonly meant the concentration that gives 50% inhibition. As to `CC1CC(C)CN(S(=O)(=O)c2ccc3c(c2)/C(=N/O)c2cc(S(=O)(=O)N4CCN(C(=O)CCCCCCNc5cccc6c5C(=O)N(C5CCC(=O)NC5=O)C6=O)CC4)ccc2/C3=N\O)C1` (configuration not stated), the fold change (FC) in [1] is 1.36; in test [2], 1.03; in test [3], 1.51; in [6], 0.91; in [7], 1.16. Besides, the IC50 in [4] was determined as 605 nM; in [5], 343 nM; in test [8], 439 nM.

Consider `CC1CC(C)CN(S(=O)(=O)c2ccc3c(c2)C(=NO)c2cc(S(=O)(=O)N4CC(C)CC(C)C4)ccc2C3=NOCCCNC(=O)CCNc2cccc3c2C(=O)N(C2CCC(=O)NC2=O)C3=O)C1` (configuration not stated), for which the fold change (FC) in [1] came out at 0.5; in test [2], 0.56; in test [3] it was 0.54; in [6], 0.97; in [7] it was 0.41. In [9], the Activity result is “Dose-Dependent Effect”. Moreover, the IC50 in [4] was 651 nM; in test [5], 189 nM; in test [8] it was 323 nM.

As for `CC1CC(C)CN(S(=O)(=O)c2ccc3c(c2)C(=NO)c2cc(S(=O)(=O)N4CC(C)CC(C)C4)ccc2C3=NOCCCNC(=O)CCCCCCNc2cccc3c2C(=O)N(C2CCC(=O)NC2=O)C3=O)C1` (configuration not stated), the fold change (FC) worked out at 0.74 in test [1]; 0.74 in [2]; 0.44 in test [3]; 0.8 in [6]; 0.61 in test [7]. The Activity entry in test [9] is “Dose-Dependent Effect”. Moreover, the IC50 amounted to 929 nM in [4], 355 nM in [5] and 530 nM in test [8].

As to `CC1CC(C)CN(S(=O)(=O)c2ccc3c(c2)C(=NO)c2cc(S(=O)(=O)N4CC(C)CC(C)C4)ccc2C3=NOCCCNC(=O)CCOCCNc2cccc3c2C(=O)N(C2CCC(=O)NC2=O)C3=O)C1` (configuration not stated), the fold change (FC) in test [1] was 0.43; in test [2], 0.47; in test [3], 0.48; in [6] it was 0.4; in [7], 0.51. In addition, the IC50 was 1350 nM in [4], 554 nM in test [5] and 1040 nM in [8].

Consider `CC1CC(C)CN(S(=O)(=O)c2ccc3c(c2)/C(=N/O)c2cc(S(=O)(=O)N4CCN(C(=O)CCCCNc5cccc6c5C(=O)N(C5CCC(=O)NC5=O)C6=O)CC4)ccc2/C3=N\O)C1` (configuration not stated), for which the fold change (FC) is 0.91 in [1]; 0.94 in test [2]; 0.6 in [3]; 0.9 in [6]; 1.02 in [7]. Besides, the IC50 in test [4] came out at 560 nM; in test [5], 647 nM; in [8] it was 496 nM.

`C[C@@H]1C[C@H](C)CN(S(=O)(=O)c2ccc3c(c2)C(=NO)c2cc(S(=O)(=O)N4C[C@H](C)C[C@H](C)C4)ccc2C3=NO)C1`: the IC50 turned out to be 86 nM in [4], 175 nM in [5] and 94.1 nM in test [8].

Consider `CC1CC(C)CN(S(=O)(=O)c2ccc3c(c2)C(=NO)c2cc(S(=O)(=O)N4CC(C)CC(C)C4)ccc2C3=NOCCCNC(=O)CCOCCOCCOCCNc2cccc3c2C(=O)N(C2CCC(=O)NC2=O)C3=O)C1` (configuration not stated), for which the fold change (FC) in [1] was found to be 0.59; in [2], 0.49; in test [3], 0.58; in test [6], 0.6; in test [7], 0.46. For the same compound, the IC50 in [4], in [5] and in test [8] was more than 20000 nM in each case.

With `CC1CC(C)CN(S(=O)(=O)c2ccc3c(c2)/C(=N/O)c2cc(S(=O)(=O)N4CCN(C(=O)CCNc5cccc6c5C(=O)N(C5CCC(=O)NC5=O)C6=O)CC4)ccc2/C3=N\O)C1` (configuration not stated), the fold change (FC) in test [1] turned out to be 1.23; in test [2], 1.3; in test [3], 1.34; in [6], 1; in test [7], 1.28. Also, the IC50 in test [4] worked out at 797 nM; in [5] it was 564 nM; in [8], 399 nM.

Turning to `CC1CC(C)CN(S(=O)(=O)c2ccc3c(c2)C(=NO)c2cc(S(=O)(=O)N4CC(C)CC(C)C4)ccc2C3=NOCCCNC(=O)CCCCNc2cccc3c2C(=O)N(C2CCC(=O)NC2=O)C3=O)C1` (configuration not stated), the fold change (FC) in test [1] came out at 0.61; in [2], 0.27; in [3], 1.46; in test [10] it was 0.92; in test [6], 0.4; in test [11], 0.82. Moreover, the fold change (FC) was 0.87 in test [12] and 0.53 in [7]. The Activity entry in test [9] was “Dose-Dependent Effect”. For the same compound, the IC50 in test [4] turned out to be 795 nM; in test [5], 398 nM; in test [8], 523 nM.

In the case of `CC1CC(C)CN(S(=O)(=O)c2ccc3c(c2)/C(=N/O)c2cc(S(=O)(=O)N4CCN(C(=O)CCCCCCCCCCNc5cccc6c5C(=O)N(C5CCC(=O)NC5=O)C6=O)CC4)ccc2/C3=N\O)C1` (configuration not stated), the fold change (FC) in test [1] turned out to be 0.92; in [2], 1.04; in test [3], 1.08; in test [6], 0.98; in test [7] it was 0.99. Further, the IC50 in test [4] turned out to be 1160 nM; in test [5] it was 2500 nM; in test [8], 1160 nM.

For the compound `CC1CC(C)CN(S(=O)(=O)c2ccc3c(c2)C(=NO)c2cc(S(=O)(=O)N4CC(C)CC(C)C4)ccc2C3=NOCCCNC(=O)CCCCCCCCCCNc2cccc3c2C(=O)N(C2CCC(=O)NC2=O)C3=O)C1` (configuration not stated), the fold change (FC) in test [1] was found to be 0.18; in [2], 0.43; in test [3], 0.43; in [6], 0.64; in [7], 0.44. For the same compound, in test [9], the Activity entry is “Dose-Dependent Effect”. Besides, the IC50 in test [4], in test [5] and in test [8] was more than 20000 nM each time.

In the case of `CC1CC(C)CN(S(=O)(=O)c2ccc3c(c2)/C(=N\O)c2cc(S(=O)(=O)N4CCN(C(=O)CCOCCOCCOCCNc5cccc6c5C(=O)N(C5CCC(=O)NC5=O)C6=O)CC4)ccc2/C3=N\O)C1` (configuration not stated), the fold change (FC) in test [1] is 0.79; in [2], 1.02; in test [3], 0.97; in test [6], 0.9; in test [7], 0.92. Further, the IC50 in [4], in test [5] and in test [8] was more than 20000 nM each time.

Regarding `CC1CC(C)CN(S(=O)(=O)c2ccc3c(c2)C(=NO)c2cc(S(=O)(=O)N4CC(C)CC(C)C4)ccc2C3=NOCCCNC(=O)CCOCCOCCNc2cccc3c2C(=O)N(C2CCC(=O)NC2=O)C3=O)C1` (configuration not stated), the fold change (FC) turned out to be 0.64 in test [1]; 0.35 in [2]; 1.03 in test [3]; 0.37 in [6]; 0.63 in test [7]. The results for the IC50 in test [4], in test [5] and in test [8] were more than 20000 nM, 1880 nM and more than 20000 nM, respectively.

For the compound `CC1CC(C)CN(S(=O)(=O)c2ccc3c(c2)/C(=N\O)c2cc(S(=O)(=O)N4CCN(C(=O)CCOCCOCCNc5cccc6c5C(=O)N(C5CCC(=O)NC5=O)C6=O)CC4)ccc2/C3=N\O)C1` (configuration not stated), the fold change (FC) was 1.06 in test [1]; 0.99 in test [2]; 0.97 in test [3]; 1.07 in test [6]; 0.94 in [7]. Moreover, the IC50 in [4], in [5] and in [8] was more than 20000 nM in each case.

Take `CC1CC(C)CN(S(=O)(=O)c2ccc3c(c2)/C(=N/O)c2cc(S(=O)(=O)N4CCN(C(=O)CCOCCNc5cccc6c5C(=O)N(C5CCC(=O)NC5=O)C6=O)CC4)ccc2/C3=N\O)C1` (configuration not stated): the fold change (FC) turned out to be 1.15 in test [1]; 1.11 in test [2]; 0.79 in test [3]; 0.91 in test [6]; 1.59 in test [7]. Further, the IC50 in test [4], in test [5] and in [8] was more than 20000 nM throughout.
